Legend:
[1] = in vivo, cited from earlier work
[2] = test system: intestinal aminopeptidases; assay: Protection against degradation by aminopeptidase in vivo: YdAGFdL bioavailability after ileal dosing; parameters: species or system rats
Experimental: The pentapeptide enkephalin analogue D-AJa-D-Leu-enkephalin (YdAGFdL) (1.0 mg) was directly ileally dosed to chronically ileally fistulated rats. Radiolabeled YdAGFdL (1.12 microgram) was dosed with each of four protecting agents: (1) decanted soy flour, <1K MW; (2) decanted and ultrafitered soy flour, 1K-30K MW; (3) pepsin-treated (FMC ACTI-MOD) soy flour, <30K MW; (4) the potent aminopeptidase inhibitor amastatin (positive control). Blood was collected from a jugular vein cannula at various times post-dosing, and intact YdAGFdL was quantified by a radiometric thin layer chromatography (TLC) method utilizing reverse phase KC-18 TLC plates (Whatman Co.). The TLC plates were developed with 30:701 -propanol/0.1 M phosphate buffer (pH 4.1).

CCNC(=O)[C@@H]1CCCN1C(=O)[C@H](CCCNC(=N)N)NC(=O)[C@H](CC(C)C)NC(=O)[C@@H](CC(C)C)NC(=O)[C@H](Cc1ccc(O)cc1)NC(=O)[C@H](CO)NC(=O)[C@H](Cc1c[nH]c2ccccc12)NC(=O)[C@H](Cc1c[nH]cn1)NC(=O)[C@@H]1CCC(=O)N1 [leuprolide]
bioavailability following oral administration ([1]; po): 0.05%
bioavailability following vaginal administration [1]: 38%

CC(C)C[C@@H](N)[C@H](O)C(=O)N[C@H](C(=O)N[C@H](C(=O)N[C@@H](CC(=O)O)C(=O)O)C(C)C)C(C)C [Amastatin]
% YdAGFdL Bioavailability ([2]; protecting agent 1 mg, ileally fistulated rats): 8.76 ± 4.47%
protection against degradation of YdAGFdL by intestinal aminopeptidases (in words) ([2]; rats): effective

From patent publication US6153592A, “Enhancing the bioavailability of proteolytically labile therapeutic agents” (Port Systems, LLC, priority 1994, dated 2000)
